According to paper PMC6143438, “Chlorogenic and phenolic acids are only very weak inhibitors of human salivary α-amylase and rat intestinal maltase activities” (Food Research International (Ottawa, Ont.), 2018):

What was measured:
[1] = target: T1, human salivary α-amylase (Homo sapiens, UniProt P0DUB6); assay: enzyme inhibition with amylose substrate, DNS readout after SPE; very weak; format: biochemical
T1 construct: gene AMY1A; human salivary α-amylase type IX-A (Sigma-Aldrich)
T1 sequence (P0DUB6 16-511): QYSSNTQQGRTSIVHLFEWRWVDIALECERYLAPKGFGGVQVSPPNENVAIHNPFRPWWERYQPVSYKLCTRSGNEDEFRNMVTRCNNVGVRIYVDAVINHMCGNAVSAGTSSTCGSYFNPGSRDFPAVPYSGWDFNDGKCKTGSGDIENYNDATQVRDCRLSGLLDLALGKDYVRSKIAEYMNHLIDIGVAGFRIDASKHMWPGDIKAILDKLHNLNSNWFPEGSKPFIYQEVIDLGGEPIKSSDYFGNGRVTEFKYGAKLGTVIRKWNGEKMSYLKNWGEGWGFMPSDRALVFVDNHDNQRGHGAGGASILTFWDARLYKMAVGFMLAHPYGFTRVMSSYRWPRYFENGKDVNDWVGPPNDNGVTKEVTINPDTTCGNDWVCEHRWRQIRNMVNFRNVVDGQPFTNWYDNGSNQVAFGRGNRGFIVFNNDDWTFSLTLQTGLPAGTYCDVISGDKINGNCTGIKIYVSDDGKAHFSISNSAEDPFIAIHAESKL

[2] = target: T1, human salivary α-amylase; assay: enzyme inhibition with amylose substrate, DNS readout after SPE; plateau at […] inhibition at […]; format: biochemical

inhibition at 5000 µM [1] [%] | inhibition at 600 µM [2] [%] | SMILES
20.5 | – | O=C(/C=C/c1ccc(O)c(O)c1)O[C@@H]1C[C@](O)(C(=O)O)C[C@@H](O)[C@H]1O [5-CQA, 5-caffeoylquinic acid]
– | 32 | COc1ccc(C=CC(=O)O)cc1OC [3,4-dimethoxycinnamic acid]
